According to patent US7666868B2, “N-sulphonylpyrroles and their use as histone deacetylase inhibitors” (4SC AG, priority 2005, dated 2010):

How the values were obtained:
[1] = system: histone H3 acetylation (lysine 9+14) in HeLa cervical carcinoma cells; test: Cellular histone H3 acetylation assay; assay type: cell-based; details: Homo sapiens, 24 h incubation with compound, read-out: EC50 (histone H3 acetylating cellular potency)
Description: To assess the cellular efficacy of an histone deactylase inhibitor in vitro, an assay is set up in black clear-bottom 96-well plates and optimized for use on the Cellomics “ArrayScan II” platform for a quantitative calculation of histone acetylation. The protocol uses a polyclonal rabbit antibody, specifically binding to acetylated lysine 9+14 of human histone H3 on fixed cells with an Alexa Fluor 488 labeled goat ant rabbit-IgG used for counterstaining (modified from Braunger et al. MCR annual conference 2003, Abstract 4556).
5×10^3 HeLa cervical carcinoma cells/well (ATCC CCL-2) in 200 μl Dulbecco's modified Eagle's medium (DMEM) containing 10% fetal calf serum are seeded at day 1 in Packard view plates and incubated for 24 h under standard cell culture conditions. On day 2, 2 μl test compound (100× final concentration) is added and incubation continued for further 24 h. On day 3, the culture medium is discarded and attached cells fixed for 15 min at room temperature by addition of 100 μl fixation buffer (3.7% v:v formaldehyde in phosphate buffered saline/PBS). After discarding the fixation buffer and one wash with PBS, cells are permeabilized at room temperature by addition of 100 μl/well permeabilization buffer (30.8 mM NaCl, 0.54 mM Na2HPO4, 0.31 mM KH2PO4, 5% v:v Triton X-100) for 15 min at room temperature. After discarding the permeabilization buffer and washing twice with 100 μl/well blocking solution (PBS with 0.05% v:v Tween 20 and 5% w:v milk powder) at room temperature, the 1st antibody (anti-K9+14 histone H3 antibody, Calbiochem No. 382158) in blocking solution (50 μl/well) is added. After incubation for 1 h at 37° C., the wells are washed twice at room temperature with 100 μl/well blocking solution before addition of the 2nd antibody (goat-anti-rabbit Alexa Fluor 488; MoBiTec No. A-11008) in blocking solution (50 μl/well). After further incubation for 1 h at 37° C., wells are washed twice with 100 μl/well blocking solution room temperature. Finally, 100 d/well PBS are added and image analysis performed on the Cellomics “ArrayScan II” platform. For calculation of EC50 values, the nuclear fluorescence in cells treated with and without a reference HDAC inhibitor (eg NVP-LBH-589) are taken as a positive and negative control. For EC50 determination, the percentage of positive cells is determined and EC50 calculation done from concentration-effect curves by means of non-linear regression.

[2] = system: HeLa cervical carcinoma cell line; test: Cellular cytotoxicity assay (Alamar Blue / Resazurin); assay type: cell-based; details: Homo sapiens; HeLa cells, 48 hours incubation; read-out: IC50 (anti-proliferative/cytotoxic potency)
Protocol: The anti-proliferative activity of the histone deacetylase inhibitory compounds as described herein, is evaluated with the HeLa cervical carcinoma cell line (ATCC CCL2) using the Alamar Blue (Resazurin) cell viability assay (O'Brien et al. Eur J Biochem 267, 5421-5426, 2000). Resazurin is reduced to the fluorescent resorufin by cellular dehydrogenase activity, correlating with viable, proliferating cells. Test compounds are dissolved as 10 mM solutions in dimethylsulfoxide (DMSO) and subsequently diluted in semi-logarithmic steps. HeLa cells are seeded into 96 well flat bottom plates at a density of 3000 cells per well in a volume of 200 μl per well. 24 hours after seeding 1 μl each of the compound dilutions are added into each well of the 96 Well plate. Each compound dilution is tested as quadruplicates. Wells containing untreated control cells are filled with 200 μl DMEM medium containing 0.5% v:v DMSO. The cells are then incubated with the substances for 48 hours at 37° C. in a humidified atmosphere containing 5% carbon dioxide. To determine the viability of the cells, 20 μl of an Resazurin solution (Sigma; 90 mg/l) are added. After 4 hours incubation at 37° C. the fluorescence is measured at an extinction of 544 nm and an emission of 590 nm. For the calculation of the cell viability the emission value from untreated cells is set as 100% viability and the emission rates of treated cells are set in relation to the values of untreated cells. Viabilites are expressed as % values. The corresponding IC50 values of the compounds for cytotoxic activity are determined from the concentration-effect curves by means of non-linear regression.

Compound	EC50 [1]	IC50 [2]	melting point
Cn1ccc2cc(-c3ccc(S(=O)(=O)n4ccc(/C=C/C(=O)NO)c4)cc3)ccc21 [Compound 1, (E)-N-Hydroxy-3-{1-[4-(1-methyl-1H-indol-5-yl)-benzenesulfonyl]-1H-pyrrol-3-yl}-acrylamide]	280 to 5300 nM	78 to 2300 nM	–
Cn1cc(-c2ccc(S(=O)(=O)n3ccc(/C=C/C(=O)NO)c3)cc2)cn1 [Compound 2, (E)-N-Hydroxy-3-{1-[4-(1-methyl-1H-pyrazol-4-yl)-benzenesulfonyl]-1H-pyrrol-3-yl}-acrylamide]	280 to 5300 nM	78 to 2300 nM	–
COc1ccc(-c2ccc(S(=O)(=O)n3ccc(/C=C/C(=O)NO)c3)cc2)cn1 [Compound 3, (E)-N-Hydroxy-3-{1-[4-(6-methoxy-pyridin-3-yl)-benzenesulfonyl]-1H-pyrrol-3-yl}-acrylamide]	280 to 5300 nM	78 to 2300 nM	–
Nc1ccc(-c2ccc(S(=O)(=O)n3ccc(C=CC(=O)NO)c3)cc2)cn1 [Compound 4, (E)-3-∴1-[4-(6-Amino-pyridin-3-yl)-benzenesulfonyl]-1H-pyrrol-3-yl)-N-hydroxy-acrylamide]	280 to 5300 nM	78 to 2300 nM	–
COc1ccc(-c2ccc(S(=O)(=O)n3ccc(/C=C/C(=O)Nc4ccccc4N)c3)cc2)cn1 [Compound 5, (E)-N-(2-Amino-phenyl)-3-{1-[4-(6-methoxy-pyridin-3-yl)-benzenesulfonyl]-1H-pyrrol-3-yl}-acrylamide]	280 to 5300 nM	78 to 2300 nM	–
Nc1ccc(-c2ccc(S(=O)(=O)n3ccc(/C=C/C(=O)Nc4ccccc4N)c3)cc2)cn1 [Compound 6, (E)-N-(2-Amino-phenyl)-3-{1-[4-(6-amino-pyridin-3-yl)-benzenesulfonyl]-1H-pyrrol-3-yl}-acrylamide]	280 to 5300 nM	78 to 2300 nM	–
Cn1cc(-c2ccc(S(=O)(=O)n3ccc(/C=C/C(=O)Nc4ccccc4N)c3)cc2)cn1 [Compound 7, (E)-N-(2-Amino-phenyl)-3-{1-[4-(1-methyl-1H-pyrazol-4-yl)-benzenesulfonyl]-1H-pyrrol-3-yl}-acrylamide]	280 to 5300 nM	78 to 2300 nM	–
Cn1cc(-c2cccc(S(=O)(=O)n3ccc(/C=C/C(=O)Nc4ccccc4N)c3)c2)cn1 [Compound 15, (E)-N-(2-Amino-phenyl)-3-{1-[3-(1-methyl-1H-pyrazol-4-yl)-benzenesulfonyl]-1H-pyrrol-3-yl}-acrylamide]	–	–	193 to 197 °C
Cc1ccc(S(=O)(=O)NC2(S(=O)(=O)n3ccc(/C=C/C(=O)NO)c3)C=CC(c3ccccc3)=CC2)cc1 (stereo not shown) [Compound 29, (E)-N-Hydroxy-3-{1-[4-(toluene-4-sulfonylamino)-biphenyl-4-sulfonyl]-1H-pyrrol-3-yl}-acrylamide]	–	–	119 to 126 °C
O=C(/C=C/c1ccn(S(=O)(=O)c2cc(-c3ccccc3)ccc2OCCCN2CCOCC2)c1)NO [Compound 38, (E)-N-Hydroxy-3-{1-[4-(3-morpholin-4-yl-propoxy)-biphenyl-3-sulfonyl]-1H-pyrrol-3-yl}-acrylamide]	27 to 4400 nM	–	167 to 172 °C
O=C(/C=C/c1ccn(S(=O)(=O)c2cc(-c3ccccc3)ccc2CCCN2CCOCC2)c1)NO [Compound 45, (E)-N-Hydroxy-3-{1-[4-(3-morpholin-4-yl-propyl)-biphenyl-3-sulfonyl]-1H-pyrrol-3-yl}-acrylamide]	27 to 4400 nM	–	215 to 217 °C
CN(C)CC1(S(=O)(=O)n2ccc(/C=C/C(=O)Nc3ccccc3N)c2)C=CC(c2ccccc2)=CC1 (stereo not shown) [Compound 47, (E)-N-(2-Amino-phenyl)-3-[1-(4-dimethylaminomethyl-biphenyl-4-sulfonyl)-1H-pyrrol-3-yl]-acrylamide]	–	–	211 to 216 °C
COCCNCc1ccc(-c2cccc(S(=O)(=O)n3ccc(C=CC(=O)NO)c3)c2)cc1 [Compound 58, (E)-N-Hydroxy-3-(1-{4′-[(2-methoxy-othylamino)-methyl]-biphenyl-3-sulfonyl}-1H-pyrrol-3-yl)-acrylamide]	27 to 4400 nM	–	–
CS(=O)(=O)Nc1cccc(-c2ccc(S(=O)(=O)n3ccc(/C=C/C(=O)Nc4ccccc4N)c3)cc2)c1 [Compound 59, (E)-N-(2-Amino-phenyl)-3-[1-(3′-methanesulfonylamino-biphenyl-4-sulfonyl)-1H-pyrrol-3-yl]-acrylamide]	27 to 4400 nM	–	–
CN1CCN(Cc2ccc(-c3cccc(S(=O)(=O)n4ccc(/C=C/C(=O)NO)c4)c3)cc2)CC1 [Compound 62, (E)-N-Hydroxy-3-{1-[4′-(4-methyl-piperazin-1-ylmethyl)-biphenyl-3-sulfonyl]-1H-pyrrol-3-yl}-acrylamide]	27 to 4400 nM	–	–
O=C(/C=C/c1ccn(S(=O)(=O)c2cc(-c3ccccc3)ccc2CNC2CC2)c1)NO [Compound 63, (E)-3-[1-(4-Cyclopropylaminomethyl-biphenyl-3-sulfonyl)-1H-pyrrol-3-yl]-N-hydroxy-acrylamide]	27 to 4400 nM	–	118 to 119 °C
NCC1(S(=O)(=O)n2ccc(/C=C/C(=O)Nc3ccccc3N)c2)C=CC(c2ccccc2)=CC1 (stereo not shown) [Compound 93, (E)-3-[1-(4-Aminomethyl-biphenyl-4-sulfonyl)-1H-pyrrol-3-yl]-N-(2-amino-phenyl)-acrylamide]	–	–	278 to 280 °C
Nc1ccccc1NC(=O)/C=C/c1ccn(S(=O)(=O)C2(CN3CCOCC3)C=CC(c3ccccc3)=CC2)c1 (stereo not shown) [Compound 107, (E)-N-(2-Amino-phenyl)-3-[1-(4-morpholin-4-ylmethyl-biphenyl-4-sulfonyl)-1H-pyrrol-3-yl]-acrylamide]	–	–	196 to 201 °C
